Reference: patent US9573947B2, “Salt of pyrazoloquinoline derivative, and crystal thereof” (Eisai R&D Management Co., Ltd., priority 2013, dated 2017)

What was measured:
[1] = Test on oral absorption characteristics in dogs; type: in vivo, beagle dogs; conditions: oral capsule, 100 mg in terms of the free form; for AREA UNDER PLASMA CONCENTRATION-TIME CURVE, MEAN: mean of 4 beagle dogs
[2] = system: cerebrospinal fluid cGMP; experiment: Effect on rodent cerebrospinal fluid cGMP; type: in vivo, Long-Evans (LE) male rats; conditions: LE rats, 10 mg/kg, 1 hour post-administration; relative to vehicle group; compound synthesized according to Reference Example 1
Description: Test compounds were administered to ICR male mice (CHARLES RIVER LABORATORIES JAPAN, INC.), Sprague-Dawley (SD) male rats (CHARLES RIVER LABORATORIES JAPAN, INC.) or Long-Evans (LE) male rats (Institute for Animal Reproduction (general incorporated foundation)), and then cerebrospinal fluid was collected under pentobarbital anesthesia and stored at −20° C. Measurement of cGMP in cerebrospinal fluid was performed according to the acetylation EIA procedure of cGMP EIA kit (GE Healthcare) or the non-acetylation procedure of cGMP EIA kit (Cayman Chemical).

[3] = Dissolution test in fasted state simulated intestinal fluid; type: physicochemical; conditions: fasted state simulated intestinal fluid pH 6.5, 37° C., 50 rpm, in terms of compound (I)
Description: Each of compound (I) (50 mg), the compound of Example 1 (30 mg) and the compound of Example 2 (30 mg) was filled into a hydroxypropyl methylcellulose capsule, together with an equal weight of lactose hydrate. A 708-DS from Agilent Technologies was equipped with small stirring paddles and small vessels, and used as a dissolution test apparatus. Each drug-filled capsule was added to 50 ml of fasted state simulated intestinal fluid (a phosphate buffer pH 6.5 containing 0.75 mM lecithin and 3 mM sodium taurocholate) which had been warmed to 37° C. The drug was dissolved by rotating the stirring paddle at a speed of 50 rpm. The dissolved solution was sampled over time and the drug concentrations were measured by HPLC. Such dissolution tests using fasted state simulated intestinal fluid are often used to evaluate the dissolution and absorption characteristics of drugs (e.g., Takano et al., “Oral absorption of poorly water-soluble drugs: computer simulation of fraction absorbed in humans from a miniscale dissolution test”, Pharm Res., vol. 23, pp. 1144-1156, 2006). The results were shown in Table 1 and the graph in FIG. 12.

[4] = system: hippocampal cGMP; experiment: Effect on rodent hippocampal cGMP; type: in vivo, LE male rats; conditions: LE rats, 10 mg/kg, 1 hour post-administration; relative to vehicle group; compound synthesized according to Reference Example 1
Description: Test compounds were administered to SD male rats (CHARLES RIVER LABORATORIES JAPAN, INC.) or LE male rats (Institute for Animal Reproduction (foundation)). Then a microwave treatment was performed under pentobarbital anesthesia, and the hippocampus were isolated, subjected to measurement of their wet weights, then frozen in liquid nitrogen and stored at −80° C. In the measurement of cGMP in the hippocampus, a 0.5 M perchloric acid/1 mM EDTA solution was added so that the wet weight would constitute 5% (w/v), and the mixture was homogenized. After the homogenization, the homogenate was centrifuged (10000 rpm, 15 min), and the supernatant was collected. The collected supernatant was neutralized with a 2 M potassium hydrogen carbonate solution and centrifuged (13000 rpm, 10 min) The cGMP concentration in the supernatant was measured according to the non-acetylation EIA procedure of cGMP EIA kit (GE Healthcare). The results were calculated using the following formula as an increase (C) in the amount of cGMP in the test compound-administered group (B) relative to the amount of cGMP in the vehicle-administered group (A). cGMP increase(C)=[(B)−(A)]/(A)×100(%) In the case of the compound (I) synthesized according to Reference Example 1, the cGMP increase was 58% at 1 hour post-administration of a dose of 10 mg/kg to LE rats.

COc1ncc(C)c(-c2ccc3c(c2)[nH]c(=O)c2cnn([C@H]4CCOC4)c23)c1C [compound (I), (S)-7-(2-methoxy-3,5-dimethylpyridin-4-yl)-1-(tetrahydrofuran-3-yl)-1H-pyrazolo[4,3-c]quinolin-4(5H)-one]
PLASMA CONCENTRATION ([1]; Dog 1, 0.25 hours): BQL
PLASMA CONCENTRATION ([1]; Dog 1, 0.5 hours): 5 ng/mL
PLASMA CONCENTRATION ([1]; Dog 1, 1 hour): 55 ng/mL
PLASMA CONCENTRATION ([1]; Dog 1, 2 hours): 94 ng/mL
PLASMA CONCENTRATION ([1]; Dog 1, 4 hours): 64 ng/mL
PLASMA CONCENTRATION ([1]; Dog 1, 6 hours): 45 ng/mL
PLASMA CONCENTRATION ([1]; Dog 1, 8 hours): 43 ng/mL
PLASMA CONCENTRATION ([1]; Dog 1, 24 hours): 234 ng/mL
AREA UNDER PLASMA CONCENTRATION-TIME CURVE ([1]; Dog 1): 2660 ng·h/mL
PLASMA CONCENTRATION ([1]; Dog 2, 0.25 hours): BQL
PLASMA CONCENTRATION ([1]; Dog 2, 0.5 hours): 29 ng/mL
PLASMA CONCENTRATION ([1]; Dog 2, 1 hour): 67 ng/mL
PLASMA CONCENTRATION ([1]; Dog 2, 2 hours): 61 ng/mL
PLASMA CONCENTRATION ([1]; Dog 2, 4 hours): 51 ng/mL
PLASMA CONCENTRATION ([1]; Dog 2, 6 hours): 45 ng/mL
PLASMA CONCENTRATION ([1]; Dog 2, 8 hours): 41 ng/mL
PLASMA CONCENTRATION ([1]; Dog 2, 24 hours): 7 ng/mL
AREA UNDER PLASMA CONCENTRATION-TIME CURVE ([1]; Dog 2): 770 ng·h/mL
PLASMA CONCENTRATION ([1]; Dog 3, 0.25 hours): BQL
PLASMA CONCENTRATION ([1]; Dog 3, 0.5 hours): 34 ng/mL
PLASMA CONCENTRATION ([1]; Dog 3, 1 hour): 142 ng/mL
PLASMA CONCENTRATION ([1]; Dog 3, 2 hours): 133 ng/mL
PLASMA CONCENTRATION ([1]; Dog 3, 4 hours): 104 ng/mL
PLASMA CONCENTRATION ([1]; Dog 3, 6 hours): 77 ng/mL
PLASMA CONCENTRATION ([1]; Dog 3, 24 hours): 9 ng/mL
AREA UNDER PLASMA CONCENTRATION-TIME CURVE ([1]; Dog 3): 1430 ng·h/mL
PLASMA CONCENTRATION ([1]; Dog 4, 0.25 hours): BQL
PLASMA CONCENTRATION ([1]; Dog 4, 0.5 hours): BQL
PLASMA CONCENTRATION ([1]; Dog 4, 1 hour): 17 ng/mL
PLASMA CONCENTRATION ([1]; Dog 4, 24 hours): 28 ng/mL
AREA UNDER PLASMA CONCENTRATION-TIME CURVE ([1]; Dog 4): 2680 ng·h/mL
concentration at 8 h ([1]; beagle, dog, plasma, po, 100 mg, Dog 3, 8 hours): 74 ng/mL
concentration at 2 h ([1]; beagle, dog, plasma, po, 100 mg, Dog 4, 2 hours): 227 ng/mL
concentration at 4 h ([1]; beagle, dog, plasma, po, 100 mg, Dog 4, 4 hours): 208 ng/mL
concentration at 6 h ([1]; beagle, dog, plasma, po, 100 mg, Dog 4, 6 hours): 164 ng/mL
concentration at 8 h ([1]; beagle, dog, plasma, po, 100 mg, Dog 4, 8 hours): 151 ng/mL
concentration at 24 h ([1]; beagle, dog, plasma, po, 100 mg, mean of dogs, 24 hours): 69 ng/mL
AREA UNDER PLASMA CONCENTRATION-TIME CURVE, MEAN [1]: 1880 ± 950 ng·h/mL
AREA UNDER PLASMA CONCENTRATION-TIME CURVE, MEAN ([1]; listed as COMPOUND (I)): 1880 ng·h/mL
PLASMA CONCENTRATION MEAN ([1]; mean of dogs, 0.5 hours): 23 ng/mL
PLASMA CONCENTRATION MEAN ([1]; mean of dogs, 1 hour): 70 ng/mL
PLASMA CONCENTRATION MEAN ([1]; mean of dogs, 2 hours): 129 ng/mL
PLASMA CONCENTRATION MEAN ([1]; mean of dogs, 4 hours): 106 ng/mL
PLASMA CONCENTRATION MEAN ([1]; mean of dogs, 6 hours): 83 ng/mL
PLASMA CONCENTRATION MEAN ([1]; mean of dogs, 8 hours): 77 ng/mL
cGMP increase in cerebrospinal fluid [2]: 274%
CONCENTRATION (dissolution) ([3]; 6 minutes): 100 ng/mL
CONCENTRATION (dissolution) ([3]; 10 minutes): 300 ng/mL
CONCENTRATION (dissolution) ([3]; 15 minutes): 1800 ng/mL
CONCENTRATION (dissolution) ([3]; 20 minutes): 3200 ng/mL
CONCENTRATION (dissolution) ([3]; 30 minutes): 4400 ng/mL
CONCENTRATION (dissolution) ([3]; 60 minutes): 5000 ng/mL
CONCENTRATION (dissolution) ([3]; 90 minutes): 5200 ng/mL
CONCENTRATION (dissolution) ([3]; 120 minutes): 5100 ng/mL
CONCENTRATION (dissolution) ([3]; 180 minutes): 5200 ng/mL
CONCENTRATION (dissolution) ([3]; 240 minutes): 5400 ng/mL
cGMP increase in hippocampus [4]: 58%
